Measured values published in patent US4528397A, “Aminocarboxylic acid derivatives” (Sanraku-Ocean Co., Ltd., priority 1982, dated 1985).

Legend:
[1] = target: T1, dipeptidase (Rattus norvegicus, UniProt P31430); experiment: In vitro inhibition of partially purified rat kidney dipeptidase (spectrophotometric); assay type: biochemical; settings: pH 8.0, 37° C., substrate of Table 1 (glycyldehydrophenylalanine or PS-5) not stated; for inhibition at 100 µM: inhibitor 10^-4 M
T1 construct: from tissue; host or cells: rat kidney, microsome fraction
T1 sequence (P31430 17-410): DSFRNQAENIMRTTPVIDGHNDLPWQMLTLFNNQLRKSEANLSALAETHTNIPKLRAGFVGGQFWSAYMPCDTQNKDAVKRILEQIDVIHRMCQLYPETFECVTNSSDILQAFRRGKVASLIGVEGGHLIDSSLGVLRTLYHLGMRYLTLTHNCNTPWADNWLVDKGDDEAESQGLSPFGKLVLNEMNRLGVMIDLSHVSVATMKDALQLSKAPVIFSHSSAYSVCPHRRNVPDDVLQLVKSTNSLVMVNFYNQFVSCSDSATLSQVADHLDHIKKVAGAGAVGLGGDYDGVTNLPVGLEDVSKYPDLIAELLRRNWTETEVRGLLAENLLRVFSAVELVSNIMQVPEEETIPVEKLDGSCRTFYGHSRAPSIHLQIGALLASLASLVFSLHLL
Procedure: (1) Purification of dipeptidase
Rats were sacrificed by decapitation, and about 12 g of fresh kidneys were collected. A microsome fraction was obtained by the Hogboom's subcellular fractionating method used on differential centrifugation (Methods in Enzymology, Vol. 1, pages 16-19, Academic Press, New York, 1955). The microsome fraction was treated with 400 μg/ml of trypsin at 0° C. for 16 hours, and then supercentrifugally fractionated at 10^5 G for 60 minutes at 0° C.
The resulting precipitate was suspended in 20 ml of tris-HCl buffer (20 mM, pH 7.6) containing a detergent (0.4% Triton X-100), and then supercentrifugally fractionated at 10^5 G for 60 minutes at 0° C. The supernatant liquid was charged onto a column (15×100 mm) of Sephadex A-50 (Cl-form), and the column was eluted with tris-HCl buffer (20 mM, pH 7.0) containing a detergent (0.4% Triton X-100) with a sodium chloride concentration linear gradient from 0 to 0.5M.
The active fractions were concentrated with polyethylene glycol 4000, and then successively purified by a Sephadex G-150 (25×900 mm) column and a Sephadex G-200 (25×900 mm) column using the same tris-HCl buffer as above to obtain a partially purified sample of the dipeptidase.
(2) Measurement of inhibitory activity
Fifty microliters of the enzyme obtained as above was preincubated together with 30 μl of an inhibitor solution in a cuvette at 37° C. for 5 minutes. Then, 2.82 ml of a solution of glycyldehydrophenylalanine (5.3×10^-5 M) preincubated to 37° C. as a substrate in tris-HCl (0.1M, pH 8.0) was added, and the reaction was started. The reaction was carried out in a cuvette of a Hitachi spectrophotometer equipped with a constant temperature (37° C.) device, and by a recorder, a decrease in the absorbance of the reaction mixture at a wavelength of 275 nm during 5 minutes was measured.
The same experiment as above was carried out using a tris-HCl (pH 8.0) solution of antibiotic PS-5 (1.03 mM) as a substrate, and a decrease in the absorbance of the reaction mixture at a wavelength of 300 nm during 5 minutes was measured.
The percent inhibition and ID50 at a predetermined inhibitor concentration were determined from the measured values obtained as above and that obtained in a control in which no inhibitor was used.

[2] = Coadministration of AEG and antibiotic PS-5: urinary recovery of antibiotic PS-5; assay type: in vivo, mice (male, ddY); settings: mouse, urine, sc, 2 mg, 0-3 hrs
Procedure: (§1) Coadministration of N-(2-aminoethyl)glycine and antibiiotic PS-5
To groups of 5 mice each (male, ddY, aged 5 weeks) was orally administered 0.25 ml (20 mg/mouse) of an aqueous solution of N-(2-aminoethyl)glycine (AEG) in a concentration of 80 mg/ml (the solutions had been adjusted to pH 7.5 with 1N HCl). The same volume of pure water was administered to a control group. Thirty minutes later, 0.25 ml of a solution of antibiotic PS-5 Na salt (8 mg/ml) in M/100 PBS (pH 7.0) was subcutaneously administered. Blood was taken from the retroorbital sinus at various time intervals using a heparinized capillary (a thermohematocrit capiratry tube, total length 75 mm, outside diameter 1.45-1.65 mm). One end of the tube was sealed with IATROSEAL® (Iatron Laboratries) and the plasma was separated by centrifugal separation (3000 rpm, 10 minutes). Blood sampling was carried out a total of six times at 0 time (immediately before administration of the antibiotic PS-5) and 5 minutes, 15 minutes, 30 minutes, 60 minutes and 90 minutes after the administration of the antibiotic PS-5. […]
On the other hand, the whole urine of the mice was taken 3 hours after the administration of the antibiotic PS-5, and the concentration of the antibiotic PS-5 in the collected whole urine was assayed by the same method as above. The mean concentrations for five mice was calculated.

[3] = Coadministration of AEG and antibiotic PS-5: plasma concentration of antibiotic PS-5; assay type: in vivo, mice (male, ddY); settings: for concentration at 5 min / concentration at 0.25 h / concentration at 0.5 h: mouse, plasma, sc, 2 mg
Procedure: as §1
To groups of 5 mice each (male, ddY, aged 5 weeks) was orally administered 0.25 ml (20 mg/mouse) of an aqueous solution of N-(2-aminoethyl)glycine (AEG) in a concentration of 80 mg/ml (the solutions had been adjusted to pH 7.5 with 1N HCl). The same volume of pure water was administered to a control group. Thirty minutes later, 0.25 ml of a solution of antibiotic PS-5 Na salt (8 mg/ml) in M/100 PBS (pH 7.0) was subcutaneously administered. Blood was taken from the retroorbital sinus at various time intervals using a heparinized capillary (a thermohematocrit capiratry tube, total length 75 mm, outside diameter 1.45-1.65 mm). One end of the tube was sealed with IATROSEAL® (Iatron Laboratries) and the plasma was separated by centrifugal separation (3000 rpm, 10 minutes). Blood sampling was carried out a total of six times at 0 time (immediately before administration of the antibiotic PS-5) and 5 minutes, 15 minutes, 30 minutes, 60 minutes and 90 minutes after the administration of the antibiotic PS-5. The concentration of the antibiotic PS-5 in the plasma was disc-assayed against Comamonas terrigena B-996.

For NCCNCC(=O)O [Compound 1, N-(2-aminoethyl)glycine], which inhibition at 100 µM [1] is on record?
Its inhibition at 100 µM is 86%.

With C[C@H](N)CNCC(=O)O [Compound 6, (S)-N-(2-aminopropyl)glycine] as the molecule, how does the inhibition at 100 µM [1] read?
The inhibition at 100 µM was 42.4%.

With NCCN[C@@H](Cc1ccccc1)C(=O)O [Compound 4, N-(2-aminoethyl)-L-phenylalanine] as the molecule, how does the inhibition at 100 µM [1] read?
The inhibition at 100 µM was 38%.

For CC[C@H]1C(=O)N2C(C(=O)O)=C(SCCNC(C)=O)C[C@H]12 [antibiotic PS-5], which dose excreted at 3 h ([2]; AEG administered group (AEG 20 mg/mouse oral, PS-5 s.c.)) is on record?
The dose excreted at 3 h was 13.2%.

What about the dose excreted at 3 h ([2]; Control group (water, PS-5 s.c.)) of the same molecule?
Its dose excreted at 3 h is 0%.

What about the “Concentration of antibiotic PS-5 in the plasma” value (“Concentration … in the plasma” for short) ([3]; AEG administered group (AEG 20 mg/mouse oral, 30 min before PS-5 s.c.), 0 min (immediately before PS-5)) of the same molecule?
Its value is 0 ng/mL.

And the “Concentration … in the plasma” value ([3]; AEG administered group, 60 min after PS-5 s.c.)?
Its value is 0 ng/mL.

What about the “Concentration … in the plasma” value ([3]; AEG administered group, 90 min after PS-5 s.c.) of the same molecule?
The value was 0 ng/mL.

And the “Concentration … in the plasma” value ([3]; Control group (water instead of AEG, then PS-5 s.c.), 0 min (immediately before PS-5))?
Its value is 0 ng/mL.

What about the “Concentration … in the plasma” value ([3]; Control group (water, PS-5 s.c.), 60 min) of the same molecule?
The value was 0 ng/mL.

What about the “Concentration … in the plasma” value ([3]; Control group (water, PS-5 s.c.), 90 min) of the same molecule?
Its value is 0 ng/mL.

And the concentration at 5 min ([3]; AEG administered group, 5 min after PS-5 s.c.)?
The concentration at 5 min was 49600 ± 3700 ng/mL.

And the concentration at 0.25 h ([3]; AEG administered group, 15 min after PS-5 s.c.)?
The concentration at 0.25 h was 21700 ± 2600 ng/mL.

And the concentration at 0.5 h ([3]; AEG administered group, 30 min after PS-5 s.c.)?
The concentration at 0.5 h was 2300 ± 500 ng/mL.

What about the concentration at 5 min ([3]; Control group (water, PS-5 s.c.), 5 min) of the same molecule?
The concentration at 5 min was 52000 ± 4600 ng/mL.

What about the concentration at 0.25 h ([3]; Control group (water, PS-5 s.c.), 15 min) of the same molecule?
The concentration at 0.25 h was 15200 ± 1900 ng/mL.

What about the concentration at 0.5 h ([3]; Control group (water, PS-5 s.c.), 30 min) of the same molecule?
The concentration at 0.5 h was 1000 ± 100 ng/mL.

For NCCSCC(=O)O [Compound 2, (2-aminoethyl)thioacetic acid], which inhibition at 100 µM [1] is on record?
Its inhibition at 100 µM is 2%.

For N[C@H](CNCC(=O)O)Cc1ccccc1 [Compound 5, (S)-[N-(2-amino-2-benzyl)ethyl]glycine], which inhibition at 100 µM [1] is on record?
The inhibition at 100 µM was 85%.

And the IC50 ([1]; read-out: ID50 (the source's name))?
Its IC50 is 22 µM.

For C[C@H](NCCN)C(=O)O [Compound 3, N-(2-aminoethyl)-L-alanine], which inhibition at 100 µM [1] is on record?
Its inhibition at 100 µM is 15.6%.
